In paper PMC5958214, “Chloroplastic Serine Hydroxymethyltransferase From Medicago truncatula: A Structural Characterization” (Frontiers in Plant Science, 2018):
Values belong to the compound of their own block, whether it stands above or below them.

Key:
[1] = target: T1, MtSHMT3 (chloroplastic serine hydroxymethyltransferase) (Medicago truncatula, UniProt G7ILW0); assay: X-ray crystallography, […] A; type: binding; conditions: covalent; internal aldimine (Schiff base) with K318; full occupancy in chains A and B; crystals from 55% Tacsimate pH 7.0; PLP from expression culture
T1 construct: gene MTR_2g018290; residues 82-533, targeting peptide removed (N-truncated at F82, begins FLDYGLSEA); His6-TEV tag cut, Ser-Asn-Ala linker left; E. coli BL21 Gold, pMCSG68; homotetramer, ~197 kDa theoretical; active site shared within tight dimer
T1 sequence (G7ILW0 entry or part of it): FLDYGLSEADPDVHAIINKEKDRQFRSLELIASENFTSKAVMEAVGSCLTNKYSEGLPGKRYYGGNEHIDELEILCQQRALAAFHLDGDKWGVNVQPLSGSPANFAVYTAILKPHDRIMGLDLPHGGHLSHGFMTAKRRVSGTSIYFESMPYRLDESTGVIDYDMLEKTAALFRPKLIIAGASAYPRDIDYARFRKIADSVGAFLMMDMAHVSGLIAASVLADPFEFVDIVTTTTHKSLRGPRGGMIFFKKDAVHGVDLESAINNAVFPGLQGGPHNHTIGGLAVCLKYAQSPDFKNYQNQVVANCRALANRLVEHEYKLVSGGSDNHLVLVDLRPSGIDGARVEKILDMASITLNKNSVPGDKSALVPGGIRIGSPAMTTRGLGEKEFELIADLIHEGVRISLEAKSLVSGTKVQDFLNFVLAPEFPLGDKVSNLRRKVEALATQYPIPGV

[2] = target: T1, MtSHMT3 (chloroplastic serine hydroxymethyltransferase); assay: X-ray crystallography, […] A; type: binding
[3] = target: chloroplast-targeted serine hydroxymethyltransferase from Medicago truncatula (MtSHMT3), residues 82-533 (Medicago truncatula); assay: SEC; HiLoad Superdex 200 16/60; 25 mM Hepes-NaOH pH 7.5, 100 mM KCl, 50 mM NaCl, 1 mM TCEP; standard curve from thyroglobulin, gamma-globulin, ovalbumin and myoglobin
[4] = target: chloroplast-targeted serine hydroxymethyltransferase from Medicago truncatula (MtSHMT3), residues 82-533 (Medicago truncatula); assay: crystal structure; three non-isomorphous crystal forms (holo/apo in Tacsimate pH 7.0; Ser-soaked in MES pH 6.5, PEG 3350, ammonium acetate; selenourea-soaked); assemblies analysed with PISA

Compound: Cc1ncc(COP(=O)(O)O)c(C=O)c1O [PLP, pyridoxal 5′-phosphate]
X-ray crystallography, 1.74 A [1]: two protein chains (A and B) contain the PLP bound as a Schiff base internal aldimine

Compound: NCC(=O)O [Gly, glycine]
X-ray crystallography, 1.91 A ([2]; Ser-soaked crystal, covalent PLP-Gly external aldimine in chains B and F, free Gly with PLP internal aldimine in chains E and H, no tetrahydrofolate): PLP-Gly external aldimine (chains B and F), and PLP internal aldimine with free Gly

Compound: N[C@@H](CO)C(=O)O [Ser, L-serine]
X-ray crystallography, 1.91 A ([2]; covalent, PLP-Ser external aldimine in chains A and D, crystals soaked with 200 mM Ser for 2 h, pH 6.5, no tetrahydrofolate): PLP-Ser external aldimine (chains A and D)

stoichiometry N [3]: 4
stoichiometry N [4]: 4
Compound: chloroplast-targeted serine hydroxymethyltransferase from Medicago truncatula (MtSHMT3), residues 82-533 (enzyme)
